Measured values published in patent US20260183393A1, “IMMUNOSUPPRESSANT-RESISTANT MODIFIED ALLOGENEIC MODIFIED IMMUNE CELLS AND METHODS FOR USE THEREOF” (Beam Therapeutics Inc., priority 2023, published 2026).

Legend:
JeKo-1.Luc cells = assay: Anti-tumor efficacy model, JeKo-1.Luc; type: in vivo, NSG mice; settings: RPM 1 mg kg^−1 daily for 2 weeks
Method: Immunocompromised NOD scid gamma (NSG) mice were implanted with 5E5 Jeko-1 tumor cells and the tumor cells were allowed to engraft for 6 days. After the six days of engraftment, 1E6 unedited or edited 19CAR-T cells were infused into tumor bearing mice (N=8 mice evaluated for each experimental condition) and administered daily for 2 weeks (dotted vertical lines) either a vehicle (5% PEG400+5% Tween80) or tacrolimus (10 mg/kg in 5% PEG400+5% Tween80). Tumor burden was assessed twice per week by measuring bioluminescence using an IVIS® spectral imaging instrument. In FIGS. 13A and 13B, each data point represents a measurement taken for an individual mouse.
For the study described in FIGS. 18A to 18G, NSG mice were intravenously injected with 5×10^5 JeKo-1.Luc cells at day 0. On day 7, mice initiated daily intraperitoneal injections of VEH, RPM (1 mg kg^−1), or TAC (10 mg kg^−1) for 2 weeks. […] For all studies, tumor burden was measured every 3-4 days post-implant by bioluminescence imaging (IVIS Spectrum, Spectral Instruments Imaging) 30 minutes after intraperitoneally injecting mice with 150 mg kg^−1 XenoLight D-Luciferin (PerkinElmer). The acquisition time was automatically determined by the instrument for each exposure, and quantification of flux from imaging datasets was performed with the Living Image Studio software (Perkin Elmer). […]

[1] = tested on: mTOR and downstream substrates S6Rp and 4E-BP1; assay: Phosphorylation of mTOR, S6 and 4EBP1 in malignant B cell lines; type: cell-based, human; settings: JeKo-1, Raji and Nalm6 cells treated with DMSO or RPM
Method: FIGS. 26A to 26E provide histograms and plots showing malignant B cell lines were sensitive to Rapamycin treatment in vitro. FIG. 26A provides histograms showing geometric median fluorescent intensity (MFI) of phosphorylated mTOR (pS2448), S6 (pS235/[…]) and 4EBP1 (pT36/T45) in JeKo-1, Raji and Nalm6 cell lines, as well as primary human monocytes and bulk lymphocytes. FIGS. 26B to 26D relate to an experiment where JeKo-1, Raji and Nalm6 cells were treated with DMSO or Rapamycin (RPM) and then analyzed for phosphorylation level of mTOR (FIG. 26B), S6 (FIG. 26C) and 4EBP1 (FIG. 26D). FIG. 26E provides plots showing JeKo-1, Raji and Nalm6 cell growth kinetics after treatment with DMSO or RPM at different concentrations. Symbols indicate mean and error bars show ±s.e.m.
Live cells were discriminated by staining negative for Fixable Viability Dye eFluor780 (eBioscience). CountBright Counting Beads were used according to the manufacturer's instructions to determine concentration of immune cells from whole blood. Intracellular cytokines were detected using Cell Fixation & Cell Permeability Kit (Invitrogen) following manufacturer's protocol with anti-human antibodies from Biolegend: TNF-a (MAb11), IFN-g (4S.B3), IL-2 (MQH-17H12) and GM-CSF (BVD2-21C11). […] Data was analyzed using FlowJo software v.10 (Tree Star).

`CO[C@H]1C[C@@H]2CC[C@@H](C)[C@@](O)(O2)C(=O)C(=O)N2CCCC[C@H]2C(=O)O[C@H]([C@H](C)C[C@@H]2CC[C@@H](O)[C@H](OC)C2)CC(=O)[C@H](C)/C=C(\C)[C@@H](O)[C@@H](OC)C(=O)[C@H](C)C[C@H](C)/C=C/C=C/C=C/1C` [rapamycin, Rapamycin] was tested, and the “JeKo-1 growth in control mice” value (JeKo-1.Luc cells) was “mitigated JeKo-1 growth in control mice” and the “protein phosphorylation of mTOR and downstream substrates S6Rp and 4E-BP1” value [1] was “attenuated protein phosphorylation”.
